# From patent US20020086278A1, “CHROMOGENIC MEDIA CONTAINING BLOOD OR HEMIN” (priority 1999, published 2002)
# Where two headings read alike, the source gives them in different places.
# Assays:
# [1] = Color contrast of chromogen on blood plate
# N. gonorrhoeae 35201 = assay: Example 1: growth and colony color on plates surface-spread with chromogen; assay type: cell-based; details: Summary of Table I; N. gonorrhoeae 35201
# N. sicca 29193 [2] = assay: Example 2: effect of incubation conditions on colony color formation; assay type: cell-based
# [3] = test system: Staphylococcus aureus 25923; assay: Example 1: growth and colony color on plates surface-spread with chromogen; assay type: cell-based; details: S. aureus 25923
# [4] = test system: Gardnerella vaginalis 14019; assay: as above; assay type: cell-based; details: Summary of Table I; G. vaginalis 14014
# S. aureus 25923 = assay: Example 2: effect of incubation conditions on colony color formation; assay type: cell-based, Staphylococcus aureus
# Group B Strep. 12386 = assay: Example 1: growth and colony color on plates surface-spread with chromogen; assay type: cell-based; details: for Growth: Group B Strep 12386
# [5] = test system: Branhamella catarrhalis 25238; assay: as above; assay type: cell-based; details: for Growth: B. catt 25258
# N. sicca 29193 [6] = assay: as above; assay type: cell-based
# [7] = test system: bacterial test strains of Example 1; assay: Example 1: inhibitory effect over all test strains; assay type: cell-based; details: Example 1, all test strains
# [8] = test system: Streptococcus pneumoniae 6303; assay: Example 1: growth and colony color on plates surface-spread with chromogen; assay type: cell-based
# S. epidermidis 12228 = assay: as above; assay type: cell-based; details: Summary of Table I; S. epidermidis 12228
# [9] = Precipitate of chromogen on pre-plated media; assay type: physicochemical; details: 50 μl DMSO solution on pre-plated media
# Experimental: 50 μl of each chromogen solution was added to the surface of each of the following pre-plated media (one chromogen solution per plate):
# The solution was dispersed using a spreader and allowed to dry 3-4 hours in a hood.
# [10] = test system: Klebsiella pneumoniae (klpn); assay: Example 3: colony color on chromogenic TSA II with 5% sheep blood (chromogen in medium); assay type: cell-based
# S. pneumoniae (stpn) = assay: as above; assay type: cell-based
# milu 9341 = assay: as above; assay type: cell-based; details: CO2, 21 h
# [11] = test system: Branhamella catarrhalis (brca); assay: as above; assay type: cell-based; details: for Colony Color: CO2, 21 h
# [12] = test system: Entercoccus faecalis (enfa); assay: as above; assay type: cell-based
# [13] = test system: Serratia marcescens (sema); assay: as above; assay type: cell-based
# 55 strains = assay: Example 3: color, hemolytic activity and growth over all 55 strains; assay type: cell-based; details: chromogenic TSA II
# Description: Steers, E. et al., Antibiot.
# [14] = test system: Aeromonas hydrophilia (aehy); assay: Example 3: colony color on chromogenic TSA II with 5% sheep blood (chromogen in medium); assay type: cell-based; details: for Colony Color: CO2, 21 h
# [15] = test system: Streptococcus agalactiae (stag); assay: as above; assay type: cell-based
# S. milleri (stmi) = assay: as above; assay type: cell-based; details: for Colony Color: stmi 6249, 21 h
# S pyogenes (stpy) = assay: as above; assay type: cell-based; details: for Colony Color: 21 h
# [16] = test system: Citrobacter freundii (cifr); assay: as above; assay type: cell-based; details: for Colony Color: CO2, 21 h
# [17] = test system: Staphylococcus aureus (stau); assay: as above; assay type: cell-based
# [18] = test system: E. coli (non-O157) (esco); assay type: cell-based
# E. faecium (enfu) = assay: Example 3: colony color on chromogenic TSA II with 5% sheep blood (chromogen in medium); assay type: cell-based; details: for Colony Color: enfu 49032, 21 h
# [19] = test system: Staphylococcus Coag Neg (step); assay: as above; assay type: cell-based; details: for Colony Color: 21 h
# Salmonella spp. (sasp) = assay type: cell-based; details: for Colony Color: CO2, 21 h
# cakr 34135 = assay: Example 3: colony color on chromogenic TSA II with 5% sheep blood (chromogen in medium); assay type: cell-based; details: CO2, 21 h
# [20] = test system: Pseudomonas aeruginosa (psae); assay: as above; assay type: cell-based; details: for Colony Color: CO2, 21 h
# Candida albicans (caal) = assay: as above; assay type: cell-based; details: for Colony Color: caal 10231, 24 h
# [21] = chromogenic TSA II with 5% Sheep Blood, 0.1 g/l, 3 strains tested
# [22] = chromogenic TSA II with 5% Sheep Blood, 0.1 g/l, 6 strains tested
# [23] = chromogenic TSA II with 5% Sheep Blood, 0.1 g/l, 2 strains tested
# [24] = chromogenic TSA II with 5% Sheep Blood, 0.1 g/l, 1 strain tested
# [25] = chromogenic TSA II with 5% Sheep Blood, 0.1 g/l, 5 strains tested
compound,measurement,setting,value
Oc1c[nH]c2cc(Cl)ccc12 [6-chloro-3-indoxyl],Absorption max (nm),[1],540 nm
5-Br-4-Cl-3-indolyl-caprylate [X-Cap],Substrates Producing Growth Inhibition,N. gonorrhoeae 35201,X-Cap
same,Colony Color,N. sicca 29193 [2],blue (m)
same,Color,[3]; Choc II,turquoise
same,Substrates Producing Color,[3]; Summary of Table I,X-Cap
same,Color,[3]; TSA II 5SB,turquoise
same,Color,[3]; TSA Plain,turquoise
same,Substrates Producing Growth Inhibition,[4],X-Cap
same,Colony Color,S. aureus 25923,blue (l)
same,Growth,Group B Strep. 12386; Choc II,<<
same,Substrates Producing Growth Inhibition,"Group B Strep. 12386; Summary of Table I, Group B Strep. 12386",Slight inhib. w/ X-
same,Growth,Group B Strep. 12386; TSA II 5SB,<
same,Growth,[5]; Choc II,<
same,Substrates Producing Growth Inhibition,"[5]; Summary of Table I, B. catarrhalis 25238",X-Cap
same,Growth,[5]; TSA II 5SB,<
same,Color,"N. sicca 29193 [6]; Substrate on Choclate II Agar, N. sicca. 29193",blue
same,Substrates Producing Color,"N. sicca 29193 [6]; Summary of Table I, N. sicca 29193",X-cap
same,Inhibitory effect,[7],most inhibitory effect
same,Substrates Producing Growth Inhibition,"[8]; Summary of Table I, S. pneumoniae 6303",X-Cap
same,Growth,"[8]; TSA II 5SB, S. pneu: 6303",<
same,Substrates Producing Growth Inhibition,S. epidermidis 12228,X-Cap
"O=C([O-])[C@H]1O[C@@H](Oc2c[nH]c3ccc(Br)c(Cl)c23)[C@H](O)[C@@H](O)[C@@H]1O.[Na+] [X-Glucuro(s), 5-Br-4-Cl-3-indolyl-β-D-glucuronide (sodium salt)]",Precipitate when spread / placed on the plated media,[9],remained clear
Magenta-caprylate [M-Cap],Colony Color (Summary),[10]; [21],0
same,Colony Color,"[10]; klpn 13883, CO2, 21 h",0
same,Colony Color,"[10]; klpn 33495, CO2, 24 h",0
same,Colony Color,"[10]; klpn 33495, air, 24 h",0
same,Colony Color,"[10]; klpn 33606, CO2, 21 h",0
same,Colony Color (Summary),S. pneumoniae (stpn); [22],0
same,Colony Color,"S. pneumoniae (stpn); stpn 1259, CO2, 21 h",0
same,Colony Color,"S. pneumoniae (stpn); stpn 1260, CO2, 21 h",0
same,Colony Color,"S. pneumoniae (stpn); stpn 1331, CO2, 21 h",0
same,Colony Color,"S. pneumoniae (stpn); stpn 1628, CO2, 21 h",0
same,Colony Color,"S. pneumoniae (stpn); stpn 6303, CO2, 24 h",0
same,Colony Color,"S. pneumoniae (stpn); stpn 6303, air, 24 h",0
same,Colony Color,"S. pneumoniae (stpn); stpn 6305, CO2, 24 h",0
same,Colony Color,"S. pneumoniae (stpn); stpn 6305, air, 24 h",0
same,Colony Color,milu 9341,0
same,Colony Color,[11]; brca 25238,0
same,Colony Color,[11]; brca 25240,0
same,Colony Color (Summary),[11]; [23],0
same,Colony Color (Summary),[12]; [22],0
same,Colony Color,"[12]; enfa 597, CO2, 21 h",0
same,Colony Color,"[12]; enfa 597, air, 21 h",0
same,Colony Color,"[12]; enfa 10741, CO2, 21 h",0
same,Colony Color,"[12]; enfa 10741, air, 21 h",0
same,Colony Color,"[12]; enfa 12953, CO2, 21 h",0
same,Colony Color,"[12]; enfa 12953, air, 21 h",0
same,Colony Color,"[12]; enfa 14506, CO2, 21 h",0
same,Colony Color,"[12]; enfa 14506, air, 21 h",0
same,Colony Color,"[12]; enfa 29212, CO2, 21 h",0
same,Colony Color,"[12]; enfa 29212, CO2, 24 h",0
same,Colony Color,"[12]; enfa 29212, air, 21 h",0
same,Colony Color,"[12]; enfa 29212, air, 24 h",0
same,Colony Color (Summary),[13]; [24],0
same,Colony Color,"[13]; sema 13880, CO2, 21 h",0
same,Activity (color) for most organisms,55 strains,inactive
same,Colony Color,[14]; aehy 7965,0
same,Colony Color,[14]; aehy 7966,0
same,Colony Color,[14]; aehy 49847,0
same,Colony Color (Summary),[14]; [21],0
same,Colony Color (Summary),[15]; [21],0
same,Colony Color,"[15]; stag 4768, CO2, 21 h",0
same,Colony Color,"[15]; stag 4768, air, 21 h",0
same,Colony Color,"[15]; stag 12386, CO2, 21 h",0
same,Colony Color,"[15]; stag 12386, CO2, 24 h",0
same,Colony Color,"[15]; stag 12386, air, 24 h",0
same,Colony Color (Summary),S. milleri (stmi); [23],0
same,Colony Color,S. milleri (stmi); CO2,0
same,Colony Color,S. milleri (stmi); air,0
same,Colony Color (Summary),S pyogenes (stpy); [22],0
same,Colony Color,"S pyogenes (stpy); stpy 1027, CO2",0
same,Colony Color,"S pyogenes (stpy); stpy 1028, CO2",0
same,Colony Color,"S pyogenes (stpy); stpy 1029, CO2",0
same,Colony Color,"S pyogenes (stpy); stpy 1030, CO2",0
same,Colony Color,"S pyogenes (stpy); stpy 19615, CO2",0
same,Colony Color,"S pyogenes (stpy); stpy 19615, air",0
same,Colony Color,"S pyogenes (stpy); stpy 49117, CO2",0
same,Colony Color,"S pyogenes (stpy); stpy 49117, air",0
same,Colony Color,"S pyogenes (stpy); stpy 51339, CO2",0
same,Colony Color,"S pyogenes (stpy); stpy 51339, air",0
same,Colony Color (Summary),[16]; [23],0
same,Colony Color,[16]; cifr 8454,0
same,Colony Color,[16]; cifr 33128,0
same,Colony Color (Summary),[17]; [25],0
same,Colony Color,"[17]; stau 1006, CO2, 21 h",0
same,Colony Color,"[17]; stau 1007, CO2, 21 h",0
same,Colony Color,"[17]; stau 1008, CO2, 21 h",0
same,Colony Color,"[17]; stau 1009, CO2, 21 h",0
same,Colony Color,"[17]; stau 25923, CO2, 24 h",0
same,Colony Color,"[17]; stau 25923, air, 24 h",0
same,Colony Color (Summary),[18]; [21],0
same,Colony Color,"[18]; esco 11775, CO2, 21 h",0
same,Colony Color,"[18]; esco 25922, CO2, 24 h",0
same,Colony Color,"[18]; esco 25922, air, 24 h",0
same,Colony Color,"[18]; esco 33605, CO2, 21 h",0
same,Colony Color (Summary),E. faecium (enfu); [24],0
same,Colony Color,E. faecium (enfu); CO2,0
same,Colony Color,E. faecium (enfu); air,0
same,Colony Color (Summary),[19]; [25],0
same,Colony Color,"[19]; step 12228, CO2",0
same,Colony Color,"[19]; step 12228, air",0
same,Colony Color,"[19]; step cdc1, CO2",0
same,Colony Color,"[19]; step cdc1, air",0
same,Colony Color,"[19]; step cdc2, CO2",0
same,Colony Color,"[19]; step cdc2, air",0
same,Colony Color,"[19]; step cdc3, CO2",0
same,Colony Color,"[19]; step cdc3, air",0
same,Colony Color,"[19]; step cdc4, CO2",0
same,Colony Color,"[19]; step cdc4, air",0
same,Colony Color (Summary),Salmonella spp. (sasp); [23],0
same,Colony Color,Salmonella spp. (sasp); saty 19430,0
same,Colony Color,Salmonella spp. (sasp); satym 14028,0
same,Colony Color,cakr 34135,0
same,Colony Color (Summary),[20]; [21],0
same,Colony Color,[20]; psae 9027,0
same,Colony Color,[20]; psae 15442,0
same,Colony Color,[20]; psae 33607,0
same,Colony Color,Candida albicans (caal); CO2,0
same,Colony Color,Candida albicans (caal); air,0
same,Colony Color (Summary),Candida albicans (caal); [23],0
Oc1c[nH]c2ccc(Br)c(Cl)c12 [5-Bromo-4-chloro-3-indoxyl],Absorption max (nm),[1],615 nm
